For data set [1] the following is noted: Liquid; for mass density: 293.15 K, 101.33 kPa, Vibrating tube method.
The nature of data set [2]: refractive index (Na D-line) (dimensionless). To be noted: 293.15 K; 101.33 kPa; Liquid; Abbe refractometer.

Numbers after ± are expanded uncertainties.

A word on the mass density: it is mass per unit of volume. A word on the vapor or sublimation pressure: it is the pressure of vapour in equilibrium with the condensed phase. In general, refractive index refers to the speed of light in vacuum divided by its phase velocity in the sample. As for `CC1=CCC2CC1C2(C)C` (stereo unspecified) [2-pinene], the mass density in data set [1] is given as 858.06 ± 0.16 kg/m3. In addition, the “vapor or sublimation pressure” value amounted to 7.35 ± 0.33 kPa in data set [1] (348.15 K); 13.32 ± 0.35 kPa in data set [1] (363.15 K); 26.66 ± 0.34 kPa in data set [1] (382.79 K); 26.98 ± 0.4 kPa in data set [1] (383.15 K); 53.33 ± 0.41 kPa in data set [1] (405.54 K); 101.32 ± 0.5 kPa in data set [1] (429.34 K). The refractive index in data set [2] stood at 1.4657 ± 0.0003.

As for `CCCCCCCC` [octane], in data set [1], the mass density was 702.44 ± 0.18 kg/m3. Also, the “vapor or sublimation pressure” value in data set [1] (348.15 K) is on record as 19.31 ± 0.37 kPa; in data set [1] (356.74 K) it was 26.66 ± 0.3 kPa; in data set [1] (363.15 K), 33.52 ± 0.42 kPa; in data set [1] (376.95 K), 53.33 ± 0.36 kPa; in data set [1] (383.15 K) it was 64.25 ± 0.52 kPa; in data set [1] (398.79 K), 101.3 ± 0.5 kPa. Moreover, the refractive index in data set [2] amounted to 1.3973 ± 0.0003.

These data come from the NIST ThermoML archive (doi:10.1021/je025631i).
